Assay [1] has as its target T1, Tyrosine-protein kinase BTK (Homo sapiens, UniProt Q06187). Briefly: Inhibition of PtdIns(3,4,5)P3 binding to Btk PH domain (unknown origin) expressed in Escherichia coli BL21(DE3) RIL cells at 100 uM by surface plasmon resonance assay relative to untreated control. Background: Surface plasmon resonance follows binding to a sensor surface in real time, without labels.

The target in assay [2] is T2, Epsin-1 (Homo sapiens, UniProt Q9Y6I3).
T2 sequence (Q9Y6I3 whole entry): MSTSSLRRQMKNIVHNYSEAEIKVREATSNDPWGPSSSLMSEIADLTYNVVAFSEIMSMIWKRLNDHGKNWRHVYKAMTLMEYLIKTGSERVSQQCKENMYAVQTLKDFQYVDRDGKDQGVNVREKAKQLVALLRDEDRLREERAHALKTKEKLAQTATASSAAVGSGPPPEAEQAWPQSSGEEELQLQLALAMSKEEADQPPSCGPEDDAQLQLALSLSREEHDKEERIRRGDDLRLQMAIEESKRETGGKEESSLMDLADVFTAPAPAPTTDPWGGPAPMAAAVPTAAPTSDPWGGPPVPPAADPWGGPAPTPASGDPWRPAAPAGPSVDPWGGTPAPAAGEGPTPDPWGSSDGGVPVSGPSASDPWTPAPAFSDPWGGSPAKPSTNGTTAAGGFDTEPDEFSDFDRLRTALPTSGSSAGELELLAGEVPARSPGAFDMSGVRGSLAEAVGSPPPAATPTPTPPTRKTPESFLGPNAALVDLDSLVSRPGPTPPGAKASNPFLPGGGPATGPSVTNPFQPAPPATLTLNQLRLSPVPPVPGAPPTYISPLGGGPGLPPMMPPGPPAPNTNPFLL
Description: Inhibition of PtdIns(4,5)P2 binding to Epsin1 ENTH domain (unknown origin).

Assay [3] deals with T1, Tyrosine-protein kinase BTK. Briefly: Inhibition of PtdIns(3,4,5)P3 binding to Btk PH domain (unknown origin) expressed in Escherichia coli BL21(DE3) RIL cells by surface plasmon resonance assay relative to untreated control.

T1 sequence (Q06187 whole entry, the tested form may be a part): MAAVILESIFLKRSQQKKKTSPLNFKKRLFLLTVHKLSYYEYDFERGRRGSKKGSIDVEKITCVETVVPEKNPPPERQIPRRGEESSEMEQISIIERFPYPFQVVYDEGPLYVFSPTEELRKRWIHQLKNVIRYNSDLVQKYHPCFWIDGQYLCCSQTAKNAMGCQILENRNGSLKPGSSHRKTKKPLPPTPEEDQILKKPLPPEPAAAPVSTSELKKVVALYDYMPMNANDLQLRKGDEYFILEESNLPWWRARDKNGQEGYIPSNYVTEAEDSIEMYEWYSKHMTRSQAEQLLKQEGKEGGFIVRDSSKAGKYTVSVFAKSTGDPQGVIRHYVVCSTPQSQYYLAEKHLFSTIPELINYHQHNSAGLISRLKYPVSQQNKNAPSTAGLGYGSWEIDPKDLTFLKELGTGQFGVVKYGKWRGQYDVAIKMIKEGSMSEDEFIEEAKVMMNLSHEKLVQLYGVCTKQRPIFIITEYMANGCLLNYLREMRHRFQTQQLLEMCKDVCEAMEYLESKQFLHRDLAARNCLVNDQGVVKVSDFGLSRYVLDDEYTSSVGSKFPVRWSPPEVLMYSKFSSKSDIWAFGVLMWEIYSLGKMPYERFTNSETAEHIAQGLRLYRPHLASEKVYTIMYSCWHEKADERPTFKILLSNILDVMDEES

For `CCOP(=O)(O)C1=NNC(C)(C(=O)O)C1` (stereo not drawn), in assay [1], the inhibition (commonly the relative decrease from the control value, in per cent) is 41%.

On to `O=C1[C@@H]2C[C@H]3CC[C@@]2(O3)[C@@H](P(=O)(O)O)N1Cc1ccccc1`, for which the inhibition in assay [1] is 38%.

`CCOP(=O)(O)c1n[nH]c(C(=O)O)c1C(=O)O` displayed an inhibition in assay [1] of 34%.

`CC1(C(=O)O)CC([PH](=O)O)=NN1` (stereo not drawn) yielded an inhibition in assay [1] of 71%.

On to `CC1(C(=O)O)NN=C(P(=O)(O)O)C1C(=O)O` (stereo not drawn), for which, in assay [1], the inhibition turned out to be 64%.

`O=C1[C@@H]2C[C@@H]3O[C@]2(C(O)C3O)[C@@H](P(=O)(O)O)N1Cc1ccccc1` (stereo partly drawn) showed an inhibition in assay [1] of 13%.

`COP(=O)(O)c1cc(C(=O)O)[nH]n1` yielded an inhibition in assay [1] of 48%.

On to `COP(=O)(O)C1=NNC(C)(C(=O)O)C1` (stereo not drawn), for which, in assay [1], the inhibition was determined as 52%.

Regarding `O=C(O)c1cc(P(=O)(O)O)n[nH]1`, the IC50 (usually the point on the concentration scale where inhibition reaches its midpoint) in assay [2] was determined as 46 µM; in assay [3], 17 µM. The compound further had an inhibition in assay [1] of 95%.

Consider `CCOP(=O)(O)c1cc(C(=O)O)[nH]n1`, for which the inhibition in assay [1] was determined as 37%.

In turn, `O=C1[C@@H]2C[C@@H]3O[C@]2(C(O)C3OP(=O)(O)O)[C@@H](P(=O)(O)O)N1Cc1ccccc1` (stereo partly drawn) gave an inhibition in assay [1] of 11%.

(Values after ChEMBL document CHEMBL3259747, “Small chemicals with inhibitory effects on PtdIns(3,4,5)P3 binding of Btk PH domain” (Bioorg Med Chem Lett, 2014).)
